Source: patent publication US8029764B2, “Methods for detection of colorectal cancer” (The Johns Hopkins University, priority 2001, dated 2011)

Test system: colorectal tissue transcripts
Assay: SAGE of normal, adenoma and cancer colorectal tissue (transcript tag counts)
Set-up: species or system human
Outline: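 Tag counts reflect transcript abundance, each mRNA represented by a 15-base tag near its 3′ end. Excluding MHC tags, linkers and duplicate ditags, libraries were compared statistically: two each of normal epithelium, FAP-derived adenomas (>70% neoplastic) and carcinomas.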

[1] = normal colorectal tissue library 1
[2] = normal colorectal tissue library 2

Sequence	AD1 (SAGE tag count) (SAGE library AD1)	AD2 (SAGE tag count) (SAGE library AD2)	CA1 (SAGE tag count) (SAGE library CA1)	CA2 (SAGE tag count) (SAGE library CA2)	NC1 (SAGE tag count) (SAGE library NC1)	NC2 (SAGE tag count) (SAGE library NC2)	AD1 (SAGE tag count) (adenoma library 1)	AD2 (SAGE tag count) (adenoma library 2)	CA1 (SAGE tag count) (cancer library 1)	CA2 (SAGE tag count) (cancer library 2)	NC1 (SAGE tag count) [1]	NC2 (SAGE tag count) [2]
GTGGTTCACG (chemistry not fully specified)	0	0	0	0	4	5	0	0	0	0	4	5
TTTGGTTTCA (chemistry not fully specified)							0	0	0	0	2	13
